Experimental data: the supplement of paper PMC10307832

Assays:
Test in all cases: relative viability (nuclei count vs DMSO), 5 days (fraction); higher = more cells survive
[1] = compound: COC1=C(C=C(C=C1)C2=CC3=NC=CN3C(=N2)NC4=C(C=CC=N4)C(=O)N)OC [BAY61-3606] + CS(=O)(=O)CCNCc1ccc(-c2ccc3ncnc(Nc4ccc(OCc5cccc(F)c5)c(Cl)c4)c3c2)o1 [Lapatinib] (partner 2 µM)
Method in brief: (§1)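 Medians of duplicate plates are given as relative viability. That measure is the nuclei count in treated wells divided by the count in vehicle wells. Counts were taken on 4× images of lung cancer cell lines in 1536-well plates, 5 days after pin-tool dosing the day after seeding with one drug alone or a fixed anchor-drug dose plus five library-drug doses (not always all listed) in √10 steps.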

[2] = compound: COC1=C(C=C(C=C1)C2=CC3=NC=CN3C(=N2)NC4=C(C=CC=N4)C(=O)N)OC [BAY61-3606] + Cc1nc(Nc2ncc(C(=O)Nc3c(C)cccc3Cl)s2)cc(N2CCN(CCO)CC2)n1 [Dasatinib] (partner 0.075 µM)
Method in brief: as §1

[3] = compound: COc1cccc2c1C(=O)c1c(O)c3c(c(O)c1C2=O)C[C@@](O)(C(=O)CO)C[C@@H]3O[C@H]1C[C@H](N)[C@H](O)[C@H](C)O1 [Doxorubicin] + C[C@@H](Oc1cc(-c2cnn(C3CCNCC3)c2)cnc1N)c1c(Cl)ccc(F)c1Cl [Crizotinib] (partner 1 µM)
Method in brief: as §1

[4] = compound: COc1cccc2c1C(=O)c1c(O)c3c(c(O)c1C2=O)C[C@@](O)(C(=O)CO)C[C@@H]3O[C@H]1C[C@H](N)[C@H](O)[C@H](C)O1 [Doxorubicin] + O=C(c1cc(Cc2n[nH]c(=O)c3ccccc23)ccc1F)N1CCN(C(=O)C2CC2)CC1 [Olaparib] (partner 8 µM)
Method in brief: as §1

Cell Line | relative viability ([1]; first compound 0.02 µM) | relative viability ([1]; first compound 0.06325 µM) | relative viability ([1]; first compound 0.2 µM) | relative viability ([1]; first compound 0.6325 µM) | relative viability ([1]; first compound 2 µM) | relative viability ([2]; first compound 0.02 µM) | relative viability ([2]; first compound 0.06325 µM) | relative viability ([2]; first compound 0.2 µM) | relative viability ([2]; first compound 0.6325 µM) | relative viability ([2]; first compound 2 µM) | relative viability ([3]; first compound 0.001 µM) | relative viability ([3]; first compound 0.003162 µM) | relative viability ([3]; first compound 0.01 µM) | relative viability ([3]; first compound 0.03162 µM) | relative viability ([3]; first compound 0.1 µM) | relative viability ([4]; first compound 0.001 µM) | relative viability ([4]; first compound 0.003162 µM) | relative viability ([4]; first compound 0.01 µM) | relative viability ([4]; first compound 0.03162 µM) | relative viability ([4]; first compound 0.1 µM)
RERF-LC-KJ | 0.935 | 0.741 | 0.859 | 0.814 | 0.709 | 0.843 | 0.856 | 0.702 | 0.886 | 0.517 | 0.872 | 0.846 | 0.865 | 0.956 | 0.7 | 0.906 | 0.784 | 0.55 | 0.3 | 0.261
LXF-289 | 0.886 | 0.945 | 0.95 | 0.934 | 0.992 | 0.261 | 0.205 | 0.187 | 0.187 | 0.129 | 0.761 | 0.832 | 0.832 | 0.837 | 0.805 | 1.03 | 1.12 | 0.998 | 1.07 | 1.15
NCI-H838 | 1.17 | 0.875 | 0.971 | 0.951 | 0.621 | 0.284 | 0.299 | 0.291 | 0.251 | 0.237 | 0.8 | 0.877 | 0.87 | 0.417 | 0.234 | 0.795 | 0.759 | 0.702 | 0.337 | 0.279
HCC-827 | 0.2 | 0.2 | 0.206 | 0.226 | 0.217 | 0.332 | 0.328 | 0.363 | 0.315 | 0.24 | 0.982 | 0.993 | 0.913 | 0.955 | 0.908 | 0.653 | 0.65 | 0.66 | 0.62 | 0.579
NCI-H1792 | 0.904 | 0.951 | 0.949 | 0.902 | 0.95 | 0.858 | 0.76 | 0.809 | 0.83 | 0.535 | 0.975 | 0.974 | 1.01 | 0.924 | 0.943 | 0.506 | 0.473 | 0.473 | 0.412 | 0.548
NCI-H460 | 1.05 | 1.19 | 0.938 | 1.01 | 0.189 | 0.574 | 0.493 | 0.533 | 0.421 | 0.284 | 0.887 | 0.882 | 0.273 | 0.0178 | 0.006 | 0.366 | 0.419 | 0.346 | 0.114 | 0.0883
NCI-H3122 | 1.03 | 0.934 | 0.974 | 1.07 | 0.957 | 0.838 | 0.882 | 0.736 | 0.897 | 0.691 | 0.247 | 0.302 | 0.295 | 0.257 | 0.282 | 0.535 | 0.616 | 0.58 | 0.62 | 0.634
NCI-H2347 | 1.05 | 0.951 | 0.924 | 0.945 | 0.941 | 0.328 | 0.3 | 0.283 | 0.332 | 0.319 | 0.869 | 0.735 | 0.735 | 0.603 | 0.503 | 0.6 | 0.562 | 0.544 | 0.516 | 0.55
NCI-H1650 | 0.862 | 0.671 | 0.8 | 0.849 | 0.517 | 0.304 | 0.261 | 0.3 | 0.296 | 0.245 | 0.925 | 0.903 | 0.283 | 0.181 | 0.13 | 0.764 | 0.865 | 0.401 | 0.179 | 0.127
NCI-H1944 | 0.851 | 0.88 | 0.796 | 0.776 | 0.587 | 0.216 | 0.205 | 0.232 | 0.21 | 0.193 | 1.09 | 1.16 | 1.03 | 1 | 1.14 | 0.403 | 0.37 | 0.384 | 0.378 | 0.423
EKVX | 0.365 | 0.184 | 0.214 | 0.198 | 0.193 | 0.602 | 0.455 | 0.436 | 0.58 | 0.297 | 0.865 | 1.02 | 0.792 | 1.02 | 0.948 | 0.862 | 0.882 | 0.767 | 0.849 | 0.734
NCI-H1355 | 1.07 | 0.907 | 0.926 | 0.948 | 0.764 | 0.68 | 0.627 | 0.65 | 0.662 | 0.67 | 1.05 | 1.16 | 1.01 | 0.964 | 1.05 | 0.732 | 0.688 | 0.694 | 0.704 | 0.85
NCI-H2228 | 1.34 | 1.01 | 1.27 | 1 | 0.894 | 0.572 | 0.498 | 0.571 | 0.46 | 0.278 | 0.562 | 0.384 | 0.421 | 0.343 | 0.197 | 0.579 | 0.717 | 0.682 | 0.249 | 0.179
NCI-H596 | 1.09 | 1.02 | 1.14 | 1.21 | 1.04 | 0.644 | 0.481 | 0.618 | 0.594 | 0.489 | 0.984 | 1.13 | 0.916 | 0.91 | 0.933 | 0.593 | 0.667 | 0.685 | 0.647 | 0.651
SK-MES-1 | 0.594 | 0.483 | 0.469 | 0.424 | 0.42 | 0.379 | 0.302 | 0.357 | 0.339 | 0.23 | 1.08 | 1.05 | 0.97 | 0.871 | 0.865 | 0.659 | 0.534 | 0.266 | 0.2 | 0.146
EPLC-272H | 1.18 | 0.809 | 0.876 | 0.878 | 0.808 | 0.386 | 0.385 | 0.315 | 0.41 | 0.275 | 1.37 | 0.965 | 1.01 | 0.806 | 0.861 | 0.767 | 1.01 | 0.832 | 0.453 | 0.261
HCC-366 | 1.05 | 1.09 | 1.13 | 1.08 | 0.955 | 0.56 | 0.548 | 0.626 | 0.597 | 0.439 |  | 0.697 | 0.509 | 0.236 | 0.333 | 0.33 | 0.348 | 0.361 | 0.209 | 0.25
PC-14 | 0.367 | 0.278 | 0.357 | 0.339 | 0.377 | 0.269 | 0.249 | 0.264 | 0.287 | 0.176 | 0.893 | 0.985 | 0.962 | 0.892 | 0.944 | 0.239 | 0.257 | 0.203 | 0.0737 | 0.0408
SW 1573 | 1.18 | 1.01 | 1.08 | 1.11 | 0.858 | 0.535 | 0.416 | 0.43 | 0.373 | 0.203 | 0.905 | 0.794 | 0.85 | 0.687 | 0.69 | 0.411 | 0.298 | 0.163 | 0.0977 | 0.047
COR-L 105 | 0.355 | 0.378 | 0.418 | 0.417 | 0.351 | 0.325 | 0.332 | 0.339 | 0.333 | 0.203 | 0.802 | 0.841 | 0.598 | 0.38 | 0.248 | 0.748 | 0.698 | 0.668 | 0.497 | 0.468
NCI-H322M | 0.622 | 0.612 | 0.596 | 0.599 | 0.553 | 0.247 | 0.232 | 0.256 | 0.233 | 0.224 | 1.02 | 1.07 | 0.86 | 0.922 | 0.893 | 0.731 | 0.765 | 0.745 | 0.542 | 0.508
PC-3 [JPC-3] | 0.468 | 0.482 | 0.478 | 0.436 | 0.471 |  | 1.07 | 1 | 0.928 | 0.862 | 0.999 | 1 | 0.977 | 0.931 | 0.936 | 1.04 | 0.944 | 1.17 | 0.897 | 0.825
NCI-H1975 | 0.996 | 0.881 | 0.963 | 0.925 | 0.595 | 0.378 | 0.31 | 0.367 | 0.282 | 0.253 | 0.853 | 1.09 | 0.946 | 0.431 | 0.423 | 0.746 | 0.896 | 0.728 | 0.575 | 0.37
CAL-12T | 0.805 | 0.596 | 0.613 | 0.768 | 0.637 | 0.495 | 0.383 | 0.404 | 0.479 | 0.131 | 0.671 | 0.507 | 0.566 | 0.182 | 0.116 | 0.7 | 0.668 | 0.559 | 0.212 | 0.191
SK-LU-1 | 0.953 | 0.81 | 0.885 | 0.862 | 0.532 | 0.2 | 0.148 | 0.148 | 0.169 | 0.152 | 1.15 | 1.03 | 0.639 | 0.472 | 0.32 | 0.512 | 0.451 | 0.397 | 0.359 | 0.356
NCI-H650 | 1.16 | 0.948 | 0.783 | 0.884 | 0.801 | 0.52 | 0.378 | 0.363 | 0.428 | 0.361 | 0.878 | 0.657 | 0.562 | 0.568 | 0.534 | 0.418 | 0.494 | 0.38 | 0.334 | 0.296
